Structures can show the parent of a compound that is named as a salt.

For test [1], the target named is T1, CAT-1 (carnitine acyltransferase 1) (Rattus norvegicus, UniProt Q63704).
T1 construct: This preparation is used as the isolated mitochondrial preparation; from tissue; host or cells: rat heart (atria removed), isolated mitochondria
T1 sequence (Q63704 1-772): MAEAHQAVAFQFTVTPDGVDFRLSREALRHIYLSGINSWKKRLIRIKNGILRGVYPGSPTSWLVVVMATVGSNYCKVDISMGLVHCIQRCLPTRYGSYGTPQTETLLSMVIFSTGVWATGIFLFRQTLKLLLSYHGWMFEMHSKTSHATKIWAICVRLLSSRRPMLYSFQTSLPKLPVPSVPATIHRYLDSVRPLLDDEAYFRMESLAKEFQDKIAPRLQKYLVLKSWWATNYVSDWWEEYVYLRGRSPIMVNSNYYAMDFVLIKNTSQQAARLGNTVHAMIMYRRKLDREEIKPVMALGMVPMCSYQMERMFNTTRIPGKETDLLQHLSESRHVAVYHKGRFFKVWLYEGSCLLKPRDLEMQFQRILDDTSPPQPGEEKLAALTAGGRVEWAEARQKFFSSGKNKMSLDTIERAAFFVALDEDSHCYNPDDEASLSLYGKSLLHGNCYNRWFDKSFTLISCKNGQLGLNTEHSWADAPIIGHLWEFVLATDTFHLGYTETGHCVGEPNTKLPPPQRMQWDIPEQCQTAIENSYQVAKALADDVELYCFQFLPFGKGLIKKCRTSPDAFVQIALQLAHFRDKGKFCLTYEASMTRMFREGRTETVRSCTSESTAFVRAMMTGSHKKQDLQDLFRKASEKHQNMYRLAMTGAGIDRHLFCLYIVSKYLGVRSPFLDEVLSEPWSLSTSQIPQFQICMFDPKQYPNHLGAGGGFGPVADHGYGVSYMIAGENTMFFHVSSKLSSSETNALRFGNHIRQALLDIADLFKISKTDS
The test can be described thus: Primary Screen--Inhibition of CAT-1 in isolated mitochondria. It is filed as biochemical. The note with it: rat heart mitochondria, reduction of palmitoyl carnitine formation by 50%; read-out: Primary Screen IC50.

Test [2] deals with T1, CAT-1 (carnitine acyltransferase 1). Kind of test: Secondary Screen--Inhibition of CAT-1 in intact cardiac myocytes (hypoxia-induced increase in long-chain acylcarnitines). More on the design: inhibition: dose or concentration left out as unconfirmed. As to conditions: isolated rat cardiac myocytes; for IC50: 50% inhibition of hypoxia-induced increase in long-chain acylcarnitines. It is filed as cell-based.
Method: Secondary Screen--Inhibition of CAT-1 in intact Cardiac Myocytes
(a) Preparation of Isolated Rat Cardiac Myocytes
Four hearts are excised from anesthetized rats and perfused retrogradly via the Langendorf technique. Each heart receives 100 mL of Krebs (NaCl, 118.4 mM; KCL, 4.6 mM; NaH2 PO4, 1.0 mM; NaHCO3, 20 mM; MgSO4, 2 mM; CaCl2, 50 μM; glucose, 11.0 mM), 100 mL of Ca++ free Krebs and finally 100 mL of 0.5% collagenase (Boehringer Mannhelm, type 1) in Hepes (NaCl, 115 mM; KCl, 5 mM; sucrose, 35 mM; glucose, 10 mM; Hepes, 10 mM; taurine, 4 mM; MgSO4, 2 mM; CaCl2, 50 μM). After these perfusions, the hearts are chopped into pieces, approx. 0.5 cm×0.5 cm and placed in four 125 mL plastic bottles along with 25 mL of collagenase/Hepes situated in a water bath maintained at 35° C. The pieces of cardiac tissue in each bottle are agitated by using a Harvard respirator connected to four glass syringes, which sucks the tissue up and down each tube during each respiratory cycle. After fifteen minutes, the collagenase/Hepes is removed and replaced with fresh collegenase/Hepes and the process repeated. The collegenase/Hepes from the subsequent fifteen minute harvests are centrifuged at 500 g to pellet the cells which are then resuspended in Hepes buffer. After six harvests, all cells are pelleted, resuspended in 2×26.5 mL of Hepes plus BSA (350 mg) and layered on top of 2×percoll gradients (21.15 mL percoll, 2.35 mL NaCl, 6 drops acetic acid). This is centfifuged at 3000 g for eight minutes forming a percoll gradient which results in viable cells being separated from damaged cells. The viable cells are removed, washed with Hepes and finally resuspended in 25 mL of Hepes.
The isolated cardiac myocytes (2 mL; approximately 1×10^6 cells) are separated into six glass pods. Into four of these are placed selected concentrations of the compound to be tested, and the cells are incubated for twenty minutes, after which the pods are centrifuged at 300 g for three minutes. 300 μL of normoxic Hepes is placed in one of the pods not containing compound and then all pods are placed in a hypoxic chamber (N2 atmosphere). Oxygen is fed via small bore steel tubes to the pod containing the normoxic buffer, while the other five pods receive pre-purified argon (99.998% pure). After two minutes, Hepes (pre-gassed with argon for at least twelve hours) is fed into the five hypoxic pods. This hypoxic environment (pO2 <10 mm Hg) is maintained for twenty minutes, after which the cells and pods are frozen by contact with a metal block precooled in liquid N2. The pods are then removed from the chamber and stored at -70° C. The carnitine assay is performed, as described below in (c), to determine the amount of long-chain acylcarnitine in the cells from the normoxic, hypoxic and hypoxic plus compound samples. […] Thus the IC50 in this screen is the concentration of test compound which produces a 50% inhibition of the hypoxia-induced increase in long-chain acylcarnitines.
(c) Long-chain Acylcarnitine Assay.
The frozen cell samples are thawed, mixed and homogenized with 40 μL of 70% PCA. The homogenate is transferred to eppendorf tubes while the homogenization tube and the glass pod is rinsed with 500 μL of 7% PCA, with the rinse being added to the eppendorf tube. This is then centrifuged at 1000 g for two minutes to pellet the precipitate (containing the long-chain acylcarnitine) and the supernatant is discarded. The pellet is washed twice with 500 μL of 7% PCA, the supernatants being discarded. The pellet is then hydrolyzed (to separate the acyl unit from carnitine to yield free carnitine) by the addition of 200 μL of aleionized H2 O and 50 μL of 5N KOH and incubated at 70° C. for ninety minutes.

Regarding `O=C(O)C(=O)c1ccc(OCCOc2ccc3ccccc3c2)cc1` [Example 86, 4-[[2-(2-naphthalenyloxy)ethyl]oxy]-alpha-oxobenzeneacetic acid], the IC50 in test [1] stood at 80 nM; in test [2], 3000 nM.
For the compound `O=C(O)C(=O)c1ccc(OCCCCc2ccccc2)cc1` [Example 25, 4-[(4-phenybutyl)oxy]-alpha-oxobenzeneacetic acid], the figures for the IC50 in test [1] and in test [2] were 2000 nM and 12000 nM, respectively.
The corresponding values for `O=C(OCC(O)CO)C(=O)c1ccc(OCCOc2ccc3ccccc3c2)cc1` (racemic) [Example 104, rac.-4-[[2-(2-naphthalenyloxy)ethyl]oxy]-alpha-oxobenzeneacetic acid 2,3-dihydroxypropyl ester] are 40 nM and 1200 nM.
With `O=C(O)C(=O)c1c(F)c(F)c(OCCOc2ccc3ccccc3c2)c(F)c1F` [Example 205, 2,3,5,6-tetrafluoro-4-[2-(2-naphthalenyloxy)ethoxy]-alpha-oxobenzeneaceticacid], the 50% inhibitory concentration (IC50) in test [1] was found to be 7200 nM. Also, the inhibition at 25 µM in test [2] (@ 25 μM, hypoxia) was 35%.
In the case of `O=C(O)C(=O)c1ccc(CCCOc2ccc3ccccc3c2)cc1` [Example 143, 4-[3-(2-naphthalenyloxy)propyl]-alpha-oxobenzeneacetic acid], the concentration for half-maximal inhibition (IC50) in test [1] stood at 2700 nM; in test [2] it was 12000 nM.
With `CCC(C)(C)C(=O)OCc1cccc(C)c1CCCOc1ccc(C(=O)C(=O)O)cc1` [Example 223, 4-[3-[2-[(2,2-dimethyl-1-oxobutoxy)methyl]-6-methylphenyl]propoxy]-alpha-oxobenzeneacetic acid], the results for the IC50 in test [1] and in test [2] were 1100 nM and 90 nM, respectively.
The corresponding values for `CN(C)CCOC(=O)C(=O)c1ccc(OCCOc2ccc3ccccc3c2)s1` [Example 6, 5-[[2-(2-naphthalenyloxy)ethyl]oxy]-alpha-oxo-2-thiopheneacetic acid 2-(dimethylamino)ethyl ester] are 40 nM and 300 nM.
With `O=C(O)C(=O)c1ccc(OCC(=O)c2ccc3ccccc3c2)cc1` [Example 157, 4-[2-(2-naphthalenyl)-2-oxoethoxy]-alpha-oxobenzeneacetic acid], the concentration for half-maximal inhibition (IC50) in test [1] is 50 nM; in test [2], 300 nM.
The corresponding values for `O=C(O)/C(=N/O)c1ccc(OCCOc2ccc3ccccc3c2)s1` [Example 302, (Z)-alpha-(hydroxyimino)-5-[2-(2-naphthalenyloxy)ethoxy]-2-thiopheneaceticacid] are 240 nM and 900 nM.
For the compound `O=C(O)C(=O)c1ccc(OCCCC(=O)c2ccc3ccccc3c2)cc1` [Example 282, 4-[[4-(2-naphthalenyl)-4-oxobutyl]oxy]-alpha-oxobenzeneacetic acid], the results for the IC50 in test [1] and in test [2] were 400 nM and 8000 nM, respectively.
On to `O=C(O)C(=O)c1ccc(OCC(=O)N2CCC(c3ccccc3)CC2)cc1` [Example 245, alpha-oxo-4-[2-oxo-2-(4-phenyl-1-piperidinyl)ethoxy]benzeneacetic acid], for which the IC50 in test [1] stood at 60 nM. Also, the inhibition in test [2] (hypoxia) came to 33%.
For the compound `N[C@H](C(=O)O)c1ccc(OCCOC2CCCCCCC2)cc1` [Example 18, (S)-alpha-amino-4-[[2-(cyclooctyloxy)ethyl]oxy]benzeneaceticacid hydrochloride], the half-maximal inhibitory concentration (IC50) in test [1] amounted to 37400 nM; in test [2], 5000 nM.
In the case of `O=C(O)C(=O)c1ccc(OCCOc2ccc3ccccc3c2)cc1F` [Example 197, 2-fluoro-4-[2-(2-naphthalenyloxy)ethoxy]-alpha-oxobenzeneacetic acid], the results for the IC50 in test [1] and in test [2] were 160 nM and 6000 nM, respectively.
The corresponding values for `O=C(COc1ccc(C(=O)C(=O)O)cc1)NC1CCCCCCC1` [Example 247, 4-[2-(cyclooctylamino)-2-oxoethoxy]-alpha-oxobenzeneacetic acid] are 400 nM and 30000 nM.
For `O=C(O)C(=O)c1ccc(OCCSc2ccc3ccccc3c2)cc1` [Example 90, 4-[[2-(2-naphthalenylthio)ethyl]oxy]-alpha-oxobenzeneacetic acid], the IC50 in test [1] turned out to be 270 nM; in test [2], 28000 nM.

These data come from patent US5344843A, “Cat-1 inhibitors, pharmaceutical compositions and methods of use” (Hoffman-La Roche Inc., priority 1992, dated 1994).
